{"source": "patent US12605350B2", "about": "“Composition for preventing, ameliorating, or treating disease caused by nitration of tyrosine in proteins comprising tyrosine as effective component” (INDUSTRY-ACADEMIC COOPERATION FOUNDATION GYEONGSANG …, priority 2020, dated 2026)", "key": {"[1]": {"tested_on": "chronic immobilization stress group (STR)", "assay": "TST (tail suspension test) after chronic immobilization stress", "assay_type": "in vivo, mouse", "conditions": "tyrosine-diet (181.2 mg/kg) vs normal diet, p<0.05", "description": "The animal models were divided into two groups (i.e., normal group and stress group). The animal of stress group was individually brought by force to a restrainer for 2 hours every day (i.e., between 2 PM and 4 PM) so that it was applied with chronic immobilization stress for 15 days. Change in bodyweight and food intake amount were measured every other day. The normal group and stress group were divided again into a normal diet group and a tyrosine-supplemented diet group (181.2 mg/kg), and then fed. For TST (tail suspension test), the mouse was individually hung in a box with horizontal bar. To measure the immobile duration, animal movement was followed for 6 minutes."}, "[2]": {"tested_on": "glutamine synthetase (GS)", "assay": "GS activity, GS expression and Tyr-nitrated GS in PFC of chronic immobilization stress mice", "assay_type": "in vivo, mouse", "description": "Each of the blood and PFC sample was obtained from a mouse anesthetized with CO2 gas. Specifically, mouse blood was collected between 9 AM and 11 AM and stored in a K3EDTA-coated vacuum container. Plasma was obtained by centrifuge for 10 minutes at 4° C., 500×g. PFC sample was weighed first, and, after lysis of the tissues by using Bullet homogenizer, subjected to centrifuge for 20 minutes at 4° C., 12,000 rpm. Thus-obtained plasma and tissue lysate were kept at −80° C. until use.\n10 μg of the lysate were admixed with […] of GS assay buffer solution (50 mM imidazole-HCl, pH 6.8, 50 mM L-glutamine, 25 mM hydroxylamine, 25 mM sodium arsenate, 2 mM MnCl2 and 0.16 mM ADP), followed by incubation for 1 hour at 37° C.\nAfter the mixing, the reaction was terminated by adding 50 μl of stop buffer solution (90 mM FeCl3, 1.8 N HCl and 1.45% trichloroacetic acid), and then γ-glutamylhydroxamate synthesized from a reaction between glutamine and hydroxylamine as catalyzed by GS was measured at 560 nm using a microplate reader.\nBy using Western blot (WB) and immunoprecipitation (IP)-WB, level of GS and level of Tyr-nitrated GS were measured, respectively. […]\nThe animal models were divided into two groups (i.e., normal group and stress group). […] Change in bodyweight and food intake amount were measured every other day. […]"}, "[3]": {"tested_on": "high-fat diet mouse model of type 2 diabetes", "assay": "fat accumulation in tissues, high-fat diet model", "assay_type": "in vivo", "description": "Twenty-seven C57BL/6 male mice (3-week old) were acclimated to the breeding condition for 1 week. […] Blood glucose was measured every week.\nMouse was anesthetized with avertin, and blood was collected from a heart. After the reaction with EDTA in a vacucontainer, the blood was centrifuged for 15 minutes at 1,500×g, 4° C. to separate plasma. According to heart perfusion with PBS and 4% paraformaldehyde (PFA), tissue fixation was carried out. Then, each tissue was harvested and stored in PFA."}, "[4]": {"tested_on": "glutamine synthetase (GS)", "assay": "activity of glutamine synthetase (GS) in hippocampus lysate after kainic acid", "assay_type": "in vivo", "conditions": "mouse survived after kainic acid, tyrosine diet vs ND/control", "description": "To a 96-well plate, 2 μl of hippocampus lysate were added, and then adjusted to 50 μl by additionally adding 50 mM imidazole-HCl buffer solution (pH 6.8). After adding 50 μl of GS activity assay buffer solution (50 mM imidazole-HCl, pH 6.8, 25 mM L-glutamine, 12.5 mM hydroxylamine, 12.5 mM sodium arsenate, 1 mM MnCl2 and 0.08 mM ADP), the reaction was allowed to occur at 37° C. for 30 to 60 minutes.\nUpon the completion of the reaction, γ-glutamylhydroxamate as a reference material was added to an empty well such that it is present at a concentration of between 0.391 and 25.0 mM. To the sample and reference material, 100 μl of reaction termination solution (90 mM FeCl3, 1.8 N HCl and 1.45% (w/v) trichloroacetic acid) were added and absorbance at a wavelength of 560 nm was measured.\nBased on comparison with standard curve, GS activity was obtained for each sample. GS activity was expressed in terms of the production amount of γ-glutamylhydroxamate as a final product with unit of μM/min/μg of protein."}, "MnSOD": {"tested_on": "MnSOD", "assay": "activity of MnSOD, renal ischemia and reperfusion", "assay_type": "in vivo, mouse", "conditions": "L-tyrosine 100 mg/kg oral for 4 days, IR", "description": "C57BL/6 male mouse (23 to 25 g, KOATECH, South Korea) was allowed to have free access to diets and water in sterile breeding room with constant temperature and humidity. The animals were divided into 3 test groups, i.e., 1) Control group (Sham), 2) Renal ischemia having treatment with prepared solvent and induced reperfusion group (CMC+IR), and 3) Renal ischemia having treatment with L-tyrosine and induced reperfusion group (L-Tyr+IR).\nL-Tyrosine (100 mg/kg) was suspended in 0.5% CMC (carboxymethyl cellulose). The animal was orally administered, once a day for 4 days, with L-tyrosine or the prepared solvent CMC. Thirty minutes after the oral administration on Day 4, renal ischemia was caused. Specifically, the animal abdomen was cut and renal pedicles at both sides were clamped using a Muller atraumatic vascular clamp to cause renal ischemia. After 25 minutes of blood ischemia, the clamp was removed followed by reperfusion. The control group (Sham) received the same operational procedures as above except the ischemia using clamp. Twenty-four hours after the reperfusion, the test animal was sacrificed, blood was collected from the heart, and the tissues were harvested."}, "[5]": {"conditions": "HFD animal model, L-tyrosine diet (181 mg/kg)"}}, "note": "Entries after “also recorded” stand apart in the source; their conditions may differ."}
{"smiles": "N[C@@H](Cc1ccc(O)cc1)C(=O)O", "note": "[tyrosine]", "values": [{"measurement": "immobile duration", "setting": "[1]", "value": "statistically significant decrease in immobile duration"}, {"measurement": "GS activity in PFC", "setting": "[2]; stress group, tyrosine diet (181.2 mg/kg) compared to normal diet", "value": "statistically significant increase in the GS activity"}, {"measurement": "amount of N-Tyr (nitrated tyrosine) in GS", "setting": "[2]; tyrosine-diet group compared to stress group with normal diet, PFC", "value": "statistically significant decrease in the amount of N-Tyr"}, {"measurement": "amount of fat tissues around kidney", "setting": "[3]; [5]", "value": "reduced to a statistically different level"}, {"measurement": "fat accumulation in liver", "setting": "[3]; [5]", "value": "fat accumulation is reduced all over the liver"}, {"measurement": "tissue weight (fat accumulation in tissues)", "setting": "[3]; HFD+Tyr compared to HFD", "value": "statistically significant decrease in tissue weight"}, {"measurement": "GS activity in hippocampal tissues", "setting": "[4]", "value": "the same or higher than the control group; also recorded: statistically significant increase in GS activity"}, {"measurement": "activity of MnSOD", "setting": "MnSOD", "value": "again recovered"}]}
